{"source": "patent US8486374B2", "about": "“Hydrophilic, non-aqueous pharmaceutical carriers and compositions and uses” (Foamix Ltd., priority 2004, dated 2013)", "format_in_all_cases": "physicochemical", "key": {"[1]": {"test": "Foam appearance (color, odor, form)", "design": "key to ODOR: No odor (N.O.); key to COLOR: white (W)"}, "[2]": {"test": "Solubility of the active agent in solvents/carriers", "conditions": "in the polyol and DMI mixture (Example 19 composition)"}, "[3]": {"test": "Shakability of the composition", "description": "‘Shakability’ means that the composition contains some or sufficient flow to allow the composition to be mixed or remixed on shaking. That is, it has fluid or semi fluid properties. A breakable foam is that is thermally stable, yet breaks under sheer force.\n‘Shakability’ means that the composition contains some or sufficient flow to allow the composition to be mixed or remixed on shaking. That is, it has fluid or semi fluid properties. In some very limited cases it may still be possible to have a foamable composition which is flowable but not apparently shakable."}, "[4]": {"test": "Foam quality grading upon release from the aerosol container", "conditions": "active agent in stock of PEG-400 97.5, hydroxypropyl cellulose 0.5, steareth 2 2.0 (first Example 29)", "description": "Foam quality can be graded as follows:\nGrade FG (fairly good): a moderate amount of creaminess noticeable, bubble structure is noticeable; upon spreading on the skin the product dulls rapidly and becomes somewhat lower in apparent viscosity.\nGrade F (fair): very little creaminess noticeable, larger bubble structure than a “fairly good” foam, upon spreading on the skin it becomes thin in appearance and watery.\nGrade P (poor): no creaminess noticeable, large bubble structure, and when spread on the skin it becomes very thin and watery in appearance.\nGrade VP (very poor): dry foam, large very dull bubbles, difficult to spread on the skin."}, "[5]": {"conditions": "active agent in stock of PEG-400 97.5, hydroxypropyl cellulose 0.5, steareth 2 2.0 (first Example 29)"}, "[6]": {"conditions": "active agent in stock of propylene glycol 46, glycerin 33, dimethyl isosorbide 15, stearyl alcohol, hydroxypropyl cellulose, laureth-4, GMS/PEG 100 stearate (Example 30)"}, "[7]": {"conditions": "active agent in stock of propylene glycol 91, stearyl alcohol 2, Klucel EF 2, laureth-4 2, glyceryl monostearate/PEG 100 stearate 3 (second Example 29)"}}, "data": [{"compound": "Nc1nc2c(ncn2COCCO)c(=O)[nH]1", "note": "[Acyclovir]", "values": [{"measurement": "COLOR", "setting": "[1]; [5]", "value": "W"}, {"measurement": "ODOR", "setting": "[1]; [5]", "value": "N.O"}, {"measurement": "COLOR", "setting": "[1]; [6]", "value": "O.W"}, {"measurement": "ODOR", "setting": "[1]; [6]", "value": "N.O"}, {"measurement": "COLOR", "setting": "[1]; [7]", "value": "O.W"}, {"measurement": "ODOR", "setting": "[1]; [7]", "value": "N.O"}, {"measurement": "solubility", "setting": "[2]", "value": "not fully soluble"}, {"measurement": "SHAKABILITY", "setting": "[3]; [5]", "value": "Yes"}, {"measurement": "SHAKABILITY", "setting": "[3]; [6]", "value": "Yes"}, {"measurement": "SHAKABILITY", "setting": "[3]; [7]", "value": "Yes"}]}, {"compound": "O=C(O)Cc1ccccc1Nc1c(Cl)cccc1Cl", "note": "[Diclofenac sodium]", "values": [{"measurement": "COLOR", "setting": "[1]; [5]", "value": "W"}, {"measurement": "ODOR", "setting": "[1]; [5]", "value": "N.O"}, {"measurement": "COLOR", "setting": "[1]; [6]", "value": "W"}, {"measurement": "ODOR", "setting": "[1]; [6]", "value": "N.O"}, {"measurement": "COLOR", "setting": "[1]; [7]", "value": "W"}, {"measurement": "ODOR", "setting": "[1]; [7]", "value": "N.O"}, {"measurement": "QUALITY", "setting": "[4]", "value": "G+"}, {"measurement": "SHAKABILITY", "setting": "[3]; [5]", "value": "Yes"}, {"measurement": "SHAKABILITY", "setting": "[3]; [6]", "value": "Yes"}, {"measurement": "SHAKABILITY", "setting": "[3]; [7]", "value": "Yes"}]}]}
